Results published in ChEMBL document CHEMBL3507680, “University of Dundee, Gates Library screen for HepG2 cell viability”.

Test: Human HepG2 cell viability assay in 384 well format
Format: toxicity, cell-based
Parameters: dose 125 nL, time 70.5 hour; cytotoxicity at 70.5 h: concentration not given beside the values
Conditions: HepG2 cells, read-out: Inhibition

Structure (SMILES) | cytotoxicity at 70.5 h [%]
COc1cc2cc(C(=O)O)n(C)c2c(OC)c1OC | -10.1
NC(=O)Cn1ccc(O)c(Cc2ccc(Cl)cc2Cl)c1=O | 3.22
O=c1[nH]cnc2[nH]c(N3CCCCC3)nc12 | -5.16
O=C(NCC(F)(F)C(F)F)c1ccncc1 | -8.69
Cc1cc(C(=O)NCc2cccn2C)nn1C | 15.6
COc1ccnc(NCc2ccccc2Cn2cccn2)n1 | -1.62
COc1ccc(-c2cc(N)on2)cc1OC | -2.02
Cn1c(=O)c2cc(C(=O)NCCc3ccccc3)ccc2n(C)c1=O | -1.15
CC(C)CCC(=O)N1CCN(C(=O)c2ccc(-n3cccn3)cc2)CC1 | -3.97
Cc1nc2c(Nc3cccc(C#N)c3)nc(N)nc2n1C | 4
O=C1CN(c2ccc(CNC(=O)Nc3nnc(C4CC4)s3)cc2)CCN1 | 21.5
CC(Cc1ccco1)NC(=O)Nc1ccc(S(C)(=O)=O)nc1 (centres undefined) | -2.2
Cn1c(=O)oc2cc(S(=O)(=O)N3CCC(c4ccccc4)C3)c(Cl)cc21 (centres undefined) | 25
Cc1cc(N2CCC(O)CC2)nc(C)n1 | 1.14
Cc1c(C(=O)O)sc2nc(C(F)(F)F)ccc12 | -18.5
CCC(NC(=O)CN(C)Cc1ccc(C)o1)c1ccc(Br)cc1 (centres undefined) | -1.78
Cc1cc2cc(Nc3c(C#N)c(=O)n(C)c(=O)n3C)ccc2[nH]1 | -5.45
Cc1cc(S(=O)(=O)N(CC(N)=O)CC(C)C)ccc1Br | 11.4
Cc1ncc(CN(C)Cc2nc3cc(Cl)ccc3n2C)s1 | -18.2
O=C(COCC(F)(F)F)Nc1nncs1 | 10.8
CN(Cc1ccccc1C(F)(F)F)C(C(N)=O)c1ccccc1 (centres undefined) | 10.2
CC(c1ccc(F)cc1)N1CCN(Cc2ccc(C#N)cc2)CC1 (centres undefined) | -11.6
COc1ccc(NC(=O)CSc2nc(C)cc(C)n2)cn1 | -8.52
Cc1c(CNCc2nn(-c3ccccc3)c3c2CCC3)cc(C#N)n1C | 4.96

Structure (SMILES) | cytotoxicity at 70.5 h [%]
OC(c1ccccc1)C1CCN(Cc2csc(-c3ncccn3)n2)CC1 (centres undefined) | -7.96
COCc1cccc(NC(=O)NCCCN(C)S(C)(=O)=O)c1 | -10.1
COc1cc(OC)cc(C2NC(=O)CN2Cc2ccc(Br)cc2)c1 (centres undefined) | -8.73
CCOc1ccc(Oc2cc(CN)ccn2)cc1 | -27.6
Cc1nn(C(C)C)c(C)c1NC(=O)Nc1cccnc1N1CCCC1 | -8.9
CN(C)C(=O)Cn1cc(C(=O)NCCc2ccc(C(F)(F)F)cc2)nn1 | 30.1
CC(C)(C)C(CCO)NC(=O)Nc1ccncc1 (centres undefined) | 23.3
CCCNC(=O)CNC(=O)CCc1ccccc1Br | -7.6
CC(C)COC(C)C(=O)NCCNS(C)(=O)=O (centres undefined) | -7.36
Cn1ccnc1CCNS(=O)(=O)c1cccnc1 | -4.82
Cc1cccc(OC2CCN(C(=O)NCCn3ccnc3)CC2)c1C | -3.44
CN(C)c1cc(C(=O)NCC2(c3ccc(F)cc3)CC2)ccn1 | -1.65
CNC(=O)CN1CCC(NC(=O)C(C)Oc2ccccc2C#N)CC1 (centres undefined) | -3.18
O=c1c2ccccc2nnn1CN(CC1CCOC1)C1CC1 (centres undefined) | -2.98
Cc1noc(C)c1CNCc1nn(-c2ccccc2)c2c1CCC2 | -3.23
COCCOc1ccc(NC(=O)N(CCO)C2CC2)cn1 | -10.9
Cc1cn2nc(N3CCCC3C(=O)N3CCN(C)CC3)sc2n1 (centres undefined) | 13.5
CC(C)(C)OC(=O)NC(C)(C)c1noc(Cn2ccnc2)n1 | -4.72
COc1ccc(CCC(=O)NCCC2CCCO2)cc1Br (centres undefined) | -7.13
COCCOc1ccc(CNc2cnc3ccccc3n2)cn1 | -10.9
Fc1ccc(C2CN(c3ncnc4nc[nH]c34)CCO2)cc1 (centres undefined) | -11.9
c1ccc2oc(C3CCN(Cc4ncon4)CC3)nc2c1 | -0.981
COC(=O)c1ccc(NC(=O)CCNCc2ccco2)cc1 | -7.22
Cc1c(C(=O)O)sc2nc(Cc3ccccc3)nc(N)c12 | -3.73

Structure (SMILES) | cytotoxicity at 70.5 h [%]
Cc1ccc(CNC(=O)C2CCN(C(=O)c3ccco3)CC2)n1C | 20.7
O=C(CSc1nncs1)N1CCN(Cc2ccc(Cl)s2)CC1 | -9.92
CN(C)c1nc(N)nc(CN2CCC(c3nc4ccccc4o3)CC2)n1 | -7.79
O=C1NCCCCC1Sc1nnc(C2CC2)n1C1CC1 (centres undefined) | -5.95
CCN(C1CCS(=O)(=O)C1)S(=O)(=O)c1cccc2cc(C)cnc12 (centres undefined) | 2.06
Cc1c(C(=O)O)oc2ccc(I)cc12 | -5.09
CC(=O)N1CCCC(C(=O)Nc2ccccc2Cc2ccccc2)C1 (centres undefined) | 3.24
Cc1ccccc1C(=O)NC(C)CN1CCOC1=O (centres undefined) | -3.59
CC(C)c1nc(CSc2nnc(C3CC3)n2CC(N)=O)no1 | -7.31
Cc1nccc(-c2cccc(NCc3nc(C(C)C)no3)c2)n1 | -10.6
c1ccc2c(c1)COC1(CCCC1)N2 | 22.7
OCc1ccc(OCC(F)(F)F)cc1 | -8.76
Cc1nc(Nc2ccccn2)cc(N2CCN(S(C)(=O)=O)CC2)n1 | 11.2
CCOC(=O)CCC(=O)N1CCC(CSCc2ccco2)CC1 | -12
COCCc1noc(C2CCN(C(=O)Nc3cccs3)CC2)n1 | -4.24
COCC(=O)N1CCc2[nH]c(=O)ccc2C1 | -8.99
O=c1ccc2c([nH]1)CCN(S(=O)(=O)c1ccc3c(c1)CCCC3)C2 | 3.55
CC(C)Oc1ccc(C(=O)N2CCCSCC2CN(C)C)cc1 (centres undefined) | 26.1
CN(C)CC1CSCCCN1C(=O)c1ccsc1 (centres undefined) | -6.74
CN(C)CC1CSCCCN1S(=O)(=O)c1ccc(C(F)(F)F)cc1 (centres undefined) | -3.11
O=C(c1ccc2[nH]ccc2c1)N1CCCSCC1CN1CCCC1 (centres undefined) | -2.63
O=C(COc1ccc(F)cc1)N1CCCSCC1CN1CCOCC1 (centres undefined) | 5.05
Cc1cccc(NC(=O)C2CSc3ncc(C)c(=O)n3C2)n1 (centres undefined) | -9.15
Cc1ccncc1NC(=O)C1CSc2ncc(C)c(=O)n2C1 (centres undefined) | 18.9

Structure (SMILES) | cytotoxicity at 70.5 h [%]
CCc1c(C)nc2n(c1=O)CC(C(=O)NCc1cccs1)CS2 (centres undefined) | 23
COc1cc(C(=O)NCCc2ccc(OC)c(OC)c2)on1 | -2.98
O=C(Cc1cccs1)NCC1(O)CCc2ccccc2C1 (centres undefined) | -7.27
CN(C)c1ccc(C(O)CNC(=O)NCCCc2ccccc2)cc1 (centres undefined) | -9.74
CSc1ccc(C(O)CNS(=O)(=O)C2CC2)cc1 (centres undefined) | 2.97
COCCN(Cc1ccoc1)S(=O)(=O)c1ccc(F)c(C)c1 | -11
CCOCC(=O)NCCC(O)c1ccoc1 (centres undefined) | -11.9
Cc1cc(C(O)CCNC(=O)COc2ccccc2C)c(C)o1 (centres undefined) | -2.27
CSc1ncccc1C(=O)NCCC(O)c1cc(C)oc1C (centres undefined) | -1.76
COC1(CNC(=O)c2ccc(F)c(F)c2)CCSC1 (centres undefined) | -11.7
O=C(Nc1cccnc1)c1ccc(-n2cncn2)nn1 | 13.8
Cc1csc(C(=O)NCCn2nc(-n3cncn3)ccc2=O)c1 | -6.83
O=C(NCCn1nc(-n2cncn2)ccc1=O)c1ccsc1 | -4.55
Cc1cc(S(=O)(=O)N2CCC(S(C)(=O)=O)C2)ccc1F (centres undefined) | -5.71
Cc1ccc(S(=O)(=O)N2CCC(S(C)(=O)=O)CC2)cc1C | -0.502
O=C(Cn1c(=O)oc2ccccc21)N1Cc2cncnc2C1 | -5.29
Cn1cnc(S(=O)(=O)NCC(C)(O)c2ccc3c(c2)OCO3)c1 (centres undefined) | -6.14
Cn1cnc(S(=O)(=O)NCC2(O)CCOc3ccccc32)c1 (centres undefined) | -4.65
Cc1oncc1C(=O)NCC1(O)CCc2ccccc2C1 (centres undefined) | 0.91
Cn1cc(S(=O)(=O)NCC2CCN(C(=O)c3ccoc3)CC2)cn1 | -2.52
O=C(Cc1ccsc1)NCCc1ccoc1 | -8.57
Cc1nsc(C(=O)NCCc2ccccc2)n1 | -8.39
Cc1nc(N(C)C)nc(C)c1NC(=O)c1ccccc1C(F)(F)F | -11
Cc1nc(N2CCOCC2)nc(C)c1NC(=O)Cc1ccc(Cl)cc1 | 13.5

Structure (SMILES) | cytotoxicity at 70.5 h [%]
Cc1nc(N(C)C)nc(C)c1NS(=O)(=O)c1ccccc1Cl | -8.77
Cc1nc(N2CCCC2)nc(C)c1NS(C)(=O)=O | 0.704
CC(C)C1CN(c2ncc(F)cn2)CCC(=O)N1Cc1ccc(F)cc1 (centres undefined) | -6.84
CCn1nc(C(C)C)cc1C(=O)NCCCOC | -4.05
CN(C)S(=O)(=O)N1C[C@@H]2CC[C@H](C1)N(Cc1ccc3nsnc3c1)C2 | 5.66
O=C(CCc1c[nH]cn1)N1CC[C@@H](c2ccc3ccccc3c2)[C@H](O)C1 | -8.55
Cc1cc(C(=O)N2C[C@@H](C(=O)O)[C@H](c3ccccc3C)C2)c(C)o1 | 13.2
CS(=O)(=O)NCc1cc2n(n1)CCCN(Cc1nc3ccccc3[nH]1)C2 | -8.44
COc1ccccc1OC1(C(=O)O)CCN(c2nccnc2C)CC1 | -5.26
Cc1cc(CN2CCC(CNC(=O)c3nccc4ccccc34)C2)[nH]n1 (centres undefined) | 9.66
CCCC1(CO)CCCN(c2ncccc2F)C1 (centres undefined) | -7.06
Cn1ncc2c(NCCOc3ccc(F)cc3)nc(C3CCCC3)nc21 | 0.952
CCCN1CCCn2nc(CNS(=O)(=O)c3cccc(C#N)c3)cc2C1 | -12.6
O=C1N(Cc2ccccc2F)CCCC12CCN(C1CCSCC1)C2 (centres undefined) | -4.98
Cc1nsc(NC(=O)N2CCC(C(C)(C)O)CC2)n1 | -5.05
COc1ncc(-c2nccn2CCN(C)C)cn1 | 9.94
N#Cc1ccc(C(=O)N2CCC3(CC2)C(=O)Nc2ccccc23)cn1 | -11.7
CC(=O)NC(C)CC(=O)NCc1cccnc1Oc1ccccc1C (centres undefined) | -6.45
CCc1cc2cc(OC)c(OC)cc2nc1SCCN1CCCCC1 | 1.15
COc1ccc(CC(=O)N2CCC[C@@H](N)[C@@H]2c2ccccc2F)cc1 | -0.222
CN1CCN(C2CCN(C(=O)CCC3CCCC3)CC2)CC1 | -6.88
CC(CCc1ccccc1)NC(=O)CNCCCN1CCOCC1 (centres undefined) | 10.1
Nc1ncnc2[nH]c(N3CCCCC3)nc12 | -6.41
